Results reported in BindingDB's records for doi:10.1021/jm00003a002 (University of Minnesota, 1995).

How the values were obtained:
[1] = The opioid receptor affinity(Ki) was evaluated by competition with [3H]DSLET (delta 2) on guinea pig brain membranes
[2] = The opioid receptor affinity(Ki) was evaluated by competition with [3H]-DPDPE (delta 1) on guinea pig brain membranes

SMILES | Ki [1] [nM] | Ki [2] [nM]
O=C(O)C[C@@H](NC(=O)c1cccc2c3c([nH]c12)[C@@H]1Oc2c(O)ccc4c2C12CCN(CC1CC1)C(C4)[C@]2(O)C3)C(=O)O (stereo partly drawn) [2-[22-cyclopropylmethyl-2,16-dihydroxy-(2S,13R)-14-oxa-11,22-diazaheptacyclo[13.9.1.01,13.02,21.04,12.05,10.019,25]pentacosa-4(12),5(10),6,8,15(25),16,18-heptaen-9-ylcarboxamido]-(2R)-butanedioic acid] | 0.41 | 0.14
N=C(N)NCCC[C@@H](NC(=O)c1cccc2c3c([nH]c12)[C@@H]1Oc2c(O)ccc4c2C12CCN(CC1CC1)C(C4)[C@]2(O)C3)C(=O)O (stereo partly drawn) [5-amino(imino)methylamino-2-[22-cyclopropylmethyl-2,16-dihydroxy-(2S,13R)-14-oxa-11,22-diazaheptacyclo[13.9.1.01,13.02,21.04,12.05,10.019,25]pentacosa-4(12),5(10),6,8,15(25),16,18-heptaen-9-ylcarboxamido]-(2R)-pentanoic acid] | 0.083 | 0.16
O=C(O)CNC(=O)c1cccc2c3c([nH]c12)[C@@H]1Oc2c(O)ccc4c2C12CCN(CC1CC1)C(C4)[C@]2(O)C3 (stereo partly drawn) [32+/-82-[22-cyclopropylmethyl-2,16-dihydroxy-(2S,13R)-14-oxa-11,22-diazaheptacyclo[13.9.1.01,13.02,21.04,12.05,10.019,25]pentacosa-4(12),5(10),6,8,15(25),16,18-heptaen-9-ylcarboxamido]acetic acid] | – | 0.005
NCCCC[C@@H](NC(=O)c1cccc2c3c([nH]c12)[C@@H]1Oc2c(O)ccc4c2C12CCN(CC1CC1)C(C4)[C@]2(O)C3)C(=O)O (stereo partly drawn) [6-amino-2-[22-cyclopropylmethyl-2,16-dihydroxy-(2S,13R)-14-oxa-11,22-diazaheptacyclo[13.9.1.01,13.02,21.04,12.05,10.019,25]pentacosa-4(12),5(10),6,8,15(25),16,18-heptaen-9-ylcarboxamido]-(2R)-hexanoic acid] | 0.75 | 0.3
NCCC[C@@H](NC(=O)c1cccc2c3c([nH]c12)[C@@H]1Oc2c(O)ccc4c2C12CCN(CC1CC1)C(C4)[C@]2(O)C3)C(=O)O (stereo partly drawn) [5-amino-2-[22-cyclopropylmethyl-2,16-dihydroxy-(2S,13R)-14-oxa-11,22-diazaheptacyclo[13.9.1.01,13.02,21.04,12.05,10.019,25]pentacosa-4(12),5(10),6,8,15(25),16,18-heptaen-9-ylcarboxamido]-(2R)-pentanoic acid] | 0.015 | 0.18
O=C(O)c1cccc2c3c([nH]c12)[C@@H]1Oc2c(O)ccc4c2C12CCN(CC1CC1)C(C4)[C@]2(O)C3 (stereo partly drawn) [22-cyclopropylmethyl-2,16-dihydroxy-(2S,13R)-14-oxa-11,22-diazaheptacyclo[13.9.1.01,13.02,21.04,12.05,10.019,25]pentacosa-4(12),5(10),6,8,15(25),16,18-heptaene-9-carboxylic acid] | 0.016 | 0.013
